Assay results taken from patent US10787436B2, “Inhibitors of cyclin-dependent kinase 7 (CDK7)” (Dana-Farber Cancer Institute, Inc., priority 2012, dated 2020).

Tests used:
[1] = molecular target: MLK3 (Homo sapiens (Human), UniProt Q16584); test: Life Technologies LanthaScreen Eu kinase assay, MLK3; assay type: binding; settings: read-out: Calculated IC50, MLK3
[2] = molecular target: CDK8/cyclin C (Homo sapiens (Human), UniProt P49336); test: Life Technologies LanthaScreen Eu kinase assay, CDK8; assay type: binding; settings: read-out: Calculated IC50, CDK8/cyclin C
CDK8/cyclin C, sequence (P49336 whole entry): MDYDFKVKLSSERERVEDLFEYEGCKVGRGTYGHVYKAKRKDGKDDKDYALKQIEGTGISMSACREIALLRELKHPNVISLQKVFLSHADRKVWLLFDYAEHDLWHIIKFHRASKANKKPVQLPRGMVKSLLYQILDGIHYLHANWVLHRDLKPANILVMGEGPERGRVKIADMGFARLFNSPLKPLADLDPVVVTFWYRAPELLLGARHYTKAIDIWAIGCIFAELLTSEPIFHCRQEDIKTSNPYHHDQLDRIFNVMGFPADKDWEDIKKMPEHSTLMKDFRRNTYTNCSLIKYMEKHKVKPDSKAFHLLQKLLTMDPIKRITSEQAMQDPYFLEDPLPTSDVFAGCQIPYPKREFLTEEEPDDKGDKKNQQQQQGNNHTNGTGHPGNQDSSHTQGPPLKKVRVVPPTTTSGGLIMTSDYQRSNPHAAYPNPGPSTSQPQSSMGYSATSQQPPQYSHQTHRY
CDK8/cyclin C, sequence (P24863 whole entry partner): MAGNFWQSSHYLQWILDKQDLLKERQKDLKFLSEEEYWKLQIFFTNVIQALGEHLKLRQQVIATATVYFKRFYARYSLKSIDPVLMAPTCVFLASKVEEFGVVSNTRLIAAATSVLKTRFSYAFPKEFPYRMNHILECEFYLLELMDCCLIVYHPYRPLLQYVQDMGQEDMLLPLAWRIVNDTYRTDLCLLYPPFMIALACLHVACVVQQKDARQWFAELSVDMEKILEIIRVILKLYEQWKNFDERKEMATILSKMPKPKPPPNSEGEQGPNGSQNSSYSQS

[3] = system: RD-ES; test: Proliferation assay, CellTiter-Glo, 72 hour; assay type: cell-based; settings: Ewing's sarcoma cell line, read-out: Inhibition of proliferation, RD-ES
[4] = system: SAOS; test: Proliferation assay, CellTiter-Glo, 72 hour; assay type: cell-based; settings: osteosarcoma cell line, read-out: Inhibition of proliferation, SAOS
[5] = system: MV4-11; test: Proliferation assay, CellTiter-Glo, 72 hour; assay type: cell-based; settings: blood cancer cell line, read-out: Inhibition of proliferation, MV4-11
[6] = molecular target: FLAG-CDK7 WT (Homo sapiens (Human), UniProt P50613); test: In vitro kinase assay of FLAG-CDK7 immunoprecipitated from treated HCT116 cells; assay type: cell-based; settings: HCT116 cells treated 4 hours, dose-response
FLAG-CDK7 WT, sequence (P50613 whole entry): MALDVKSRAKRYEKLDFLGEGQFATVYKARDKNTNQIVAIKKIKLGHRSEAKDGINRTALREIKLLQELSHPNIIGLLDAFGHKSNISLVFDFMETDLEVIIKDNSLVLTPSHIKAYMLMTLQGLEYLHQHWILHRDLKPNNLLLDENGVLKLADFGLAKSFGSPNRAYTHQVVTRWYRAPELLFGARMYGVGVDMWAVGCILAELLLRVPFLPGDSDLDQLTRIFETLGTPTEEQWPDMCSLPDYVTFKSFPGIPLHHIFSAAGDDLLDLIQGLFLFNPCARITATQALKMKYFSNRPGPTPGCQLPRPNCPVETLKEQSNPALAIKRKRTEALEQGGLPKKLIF
FLAG-CDK7 WT, sequence (P51946 whole entry partner): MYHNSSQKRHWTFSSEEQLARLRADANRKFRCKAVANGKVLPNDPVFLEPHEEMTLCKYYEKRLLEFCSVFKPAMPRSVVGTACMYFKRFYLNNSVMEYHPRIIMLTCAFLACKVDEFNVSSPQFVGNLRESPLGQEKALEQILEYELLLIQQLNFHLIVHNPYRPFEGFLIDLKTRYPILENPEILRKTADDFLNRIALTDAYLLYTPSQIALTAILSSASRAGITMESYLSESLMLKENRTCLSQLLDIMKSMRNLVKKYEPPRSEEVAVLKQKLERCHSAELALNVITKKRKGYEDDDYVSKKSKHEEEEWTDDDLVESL
FLAG-CDK7 WT, sequence (P51948 whole entry partner): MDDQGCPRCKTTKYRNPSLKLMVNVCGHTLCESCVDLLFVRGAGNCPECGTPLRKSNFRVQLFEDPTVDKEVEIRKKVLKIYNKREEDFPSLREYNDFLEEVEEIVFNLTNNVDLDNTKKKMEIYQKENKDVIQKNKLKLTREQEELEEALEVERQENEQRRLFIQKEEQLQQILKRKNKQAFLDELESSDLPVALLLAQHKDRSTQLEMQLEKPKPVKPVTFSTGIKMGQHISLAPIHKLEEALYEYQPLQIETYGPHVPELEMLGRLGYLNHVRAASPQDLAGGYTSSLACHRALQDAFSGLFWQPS
Experimental: Following the treatment, the cells were washed 2-fold with cold PBS and then lysed in the following lysis buffer: 50 mM TrisHCl pH 8.0, 150 mM NaCl, 1% NP-40, 5 mM EDTA, 1 mM DTT, and protease/phosphatase cocktails. Following clearance, the lysates were treated with compound I-49 for pulldown (or CDK7 antibody for IP) overnight at 4° C. The lysates were then incubated with streptavidin agarose for pulldown (or Protein G Agarose for IP) for an additional 2-3 hours at 4° C. Agarose beads were washed 5 times with a lysis buffer and then boiled in 2X SDS for 10 minutes at 95° C.
In vitro kinase assays with immunoprecipitated proteins (or recombinant CAK complexes) were performed as follows. Kinase reactions were performed in 25 μL of final volume of reaction buffer (50 mM Hepes, pH 7.5, 150 mM NaCl, 10 mM MgCl2, 5% glycerol, 25 μM ATP, and 10 μCi of [γ-32P]ATP). Each reaction contained 1 μg of RNAP II. Incubation was at 30° C. for 30-45 min. Reactions were terminated by addition of 5 μL of 5×SDS-PAGE sample buffer and incubated at 95° C. for 5 min. Reactions were analyzed by SDS-PAGE, and the dried gel was exposed to film or PhosphorImager plate.
HCT116 cells were generated stably expressing FLAG-CDK7 WT and C312S. […] CDK7 was then immunoprecipitated (IP) from each combination treatment using a FLAG antibody, and washed IPs were subjected to in vitro kinase assays (FIG. 4F). […]

[7] = system: Jurkat and Loucy leukemia cell lines; test: Anti-proliferative effect, cell titer glo, 72 hours; assay type: cell-based
Experimental: Precipitated proteins were washed and probed for CDK7.
Proliferation assays were conducted over a 48-72 hour time period (as noted). […] Cancer cell line profiling was performed over a 72 time period using Alamar Blue reagent.
The phenylamino-pyrimidine (PAP) core scaffold is a “privileged” ATP-site directed pharmacophore with the most famous example being imatinib, a Bcr-Abl inhibitor approved to treat several cancers including Chronic Myelogenous Leukemia. Numerous PAP derivatives have been reported as potent inhibitors of various CDKs; however, efforts to achieve greater selectivity amongst the CDK family members have been hindered by the high sequence and structural similarity of CDKs. […] In an effort to explore broadly which CDKs might be targetable by a covalent inhibitor, a library of acrylamide-modified PAPs was built, and the library was subject to cell proliferation as well broad kinase selectivity profiling using the Kinativ chemical proteomics approach.

[8] = system: RNAP II occupancy; test: RNAP II ChIP-seq in Jurkat cells; assay type: cell-based, human; settings: 250 nM for 6 hours
Experimental: After the indicated treatment time, cells were crosslinked for 10 minutes at room temperature by the addition of one-tenth of the volume of 11% formaldehyde solution (11% formaldehyde, 50 mM Hepes (pH 7.3), 100 mM NaCl, 1 mM EDTA (pH 8.0), 0.5 mM EGTA (pH 8.0)) to the growth media followed by two washes with PBS. Following the final PBS wash, supernatant was aspirated, and the cell pellet was flash frozen in liquid nitrogen. Frozen crosslinked cells were stored at −80° C.
50 μl of Dynal magnetic beads (Sigma) were blocked with 0.5% BSA (w/v) in PBS. Magnetic beads were bound with 5 μg of the indicated antibody. Antibodies used are as follows: Total RNAP II (Rpb1 N-terminus): Santa Cruz sc-899; CDK7: Bethyl A300-405A. Crosslinked cells were lysed with lysis buffer 1 (50 mM Hepes (pH 7.3), 140 mM NaCl, 1 mM EDTA, 10% glycerol, 0.5% NP-40, and 0.25% Triton X-100) and washed with lysis buffer 2 (10 mM Tris-HCl (pH 8.0), 200 mM NaCl, 1 mM EDTA (pH 8.0) and 0.5 mM EGTA (pH 8.0)). […]
Illumina sequencing libraries were generated, and data were processed according to Lin et al., Cell (2012) 151:56-67. […] These criteria preserved only reads that mapped uniquely to the genome with 1 or fewer mismatches. […]

MLK3, sequence (Q16584 whole entry): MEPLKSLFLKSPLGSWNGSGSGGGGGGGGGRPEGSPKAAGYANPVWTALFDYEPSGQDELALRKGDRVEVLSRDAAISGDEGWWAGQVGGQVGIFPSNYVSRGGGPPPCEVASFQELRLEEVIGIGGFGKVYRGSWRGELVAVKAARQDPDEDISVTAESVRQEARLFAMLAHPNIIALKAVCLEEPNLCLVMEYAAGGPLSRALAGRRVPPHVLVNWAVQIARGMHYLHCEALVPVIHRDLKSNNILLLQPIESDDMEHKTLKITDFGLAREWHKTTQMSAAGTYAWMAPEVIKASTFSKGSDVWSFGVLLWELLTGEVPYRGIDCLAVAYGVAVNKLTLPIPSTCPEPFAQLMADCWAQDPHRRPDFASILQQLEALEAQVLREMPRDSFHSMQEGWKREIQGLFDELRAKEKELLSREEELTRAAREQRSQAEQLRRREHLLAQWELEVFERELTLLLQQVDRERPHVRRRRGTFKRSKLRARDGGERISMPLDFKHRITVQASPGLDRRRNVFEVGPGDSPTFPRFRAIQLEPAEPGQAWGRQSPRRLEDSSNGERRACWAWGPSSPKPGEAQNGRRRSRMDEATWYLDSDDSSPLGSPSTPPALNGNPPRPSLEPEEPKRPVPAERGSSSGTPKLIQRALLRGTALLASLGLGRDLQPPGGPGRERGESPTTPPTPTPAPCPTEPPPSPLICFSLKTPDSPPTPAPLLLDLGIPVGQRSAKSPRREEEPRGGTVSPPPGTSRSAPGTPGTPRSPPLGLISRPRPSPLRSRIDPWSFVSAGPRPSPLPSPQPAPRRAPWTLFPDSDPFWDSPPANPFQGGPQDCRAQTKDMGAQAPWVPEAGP

CN(C)C/C=C/C(=O)Nc1ccc(C(=O)Nc2cccc(Nc3ncc(Cl)c(-c4c[nH]c5ccccc45)n3)c2)cc1 [Formula I-23]
IC50 [1]: < 100 nM | IC50 [2]: ≥ 1000 nM | IC50 [3]: < 500 nM | IC50 [4]: < 500 nM | IC50 [5]: < 500 nM | Inhibition of FLAG-CDK7 WT kinase activity [6]: inhibited FLAG-CDK7 WT in a dose-dependent fashion | Inhibition of proliferation of Jurkat and Loucy leukemia cell lines [7]: potently inhibits proliferation | RNAP II occupancy at the promoter proximal pause site [8]: drastically diminished
